Reference: ChEMBL document CHEMBL5674860, “Optimized Dual-Glo Assay to identify co-culture-induced drug vulnerabilities in 3D CRC models” (2024)

Experiments:
Format in all cases: functional, Homo sapiens
Design in all cases: dose or concentration left out as unconfirmed
Colon cancer organoid [1] = experiment: Optimized Dual-Glo assay to identify co-culture induced drug vulnerabilities using donated chemical probes and chemogenomics kinase set in O06 CRC organoid and F06 CAF mono and co-culture. […] Cell viability is reported both mono and co-culture models.
Colon cancer organoid [2] = experiment: Optimized Dual-Glo assay to identify co-culture induced drug vulnerabilities using donated chemical probes and chemogenomics kinase set in O14 CRC organoid and F14 CAF mono and co-culture. […] Cell viability is reported both mono and co-culture models.
Colon cancer organoid [3] = experiment: Optimized Dual-Glo assay to identify co-culture induced drug vulnerabilities using donated chemical probes and chemogenomics kinase set in O20 CRC organoid and F20 CAF mono and co-culture. […] Cell viability is reported both mono and co-culture models.
[4] = Culture type Co-Culture, Transduced with Lucferase2-P2A-EGFP lentivirus
[5] = Culture type Co-Culture, Transduced with Renilla-dsRed lentivirus
[6] = Culture type Mono-Culture, Transduced with Lucferase2-P2A-EGFP lentivirus
[7] = Culture type Mono-Culture, Transduced with Renilla-dsRed lentivirus

SMILES	Cell Viability (Colon cancer organoid [1]; [4]) [%]	Cell Viability (Colon cancer organoid [1]; [5]) [%]	Cell Viability (Colon cancer organoid [1]; [6]) [%]	Cell Viability (Colon cancer organoid [1]; [7]) [%]	Cell Viability (Colon cancer organoid [2]; [4]) [%]	Cell Viability (Colon cancer organoid [2]; [5]) [%]	Cell Viability (Colon cancer organoid [2]; [6]) [%]	Cell Viability (Colon cancer organoid [2]; [7]) [%]	Cell Viability (Colon cancer organoid [3]; [4]) [%]	Cell Viability (Colon cancer organoid [3]; [5]) [%]	Cell Viability (Colon cancer organoid [3]; [6]) [%]	Cell Viability (Colon cancer organoid [3]; [7]) [%]
CCC(F)(F)c1cc(N2CCC(S(C)(=O)=O)CC2)nc2sc(C(N)=O)c(N)c12 [BI-605906]	93.6384	92.3898	93.147	102.109	108.411	90.1855	95.9322	83.0517	178.631	81.0914	102.635	91.2338
CC(C)Oc1ccc(-c2nn([C@@H](C)c3oc4ccc(F)cc4c(=O)c3-c3cccc(F)c3)c3ncnc(N)c23)cc1F [UMBRALISIB]	96.678	112.425	122.966	119.327	152.127	105.235	156.597	100.314	102.839	87.858	157.324	122.853
CN(C)C(=O)/C(C#N)=C/c1ccc(-c2nc3cnc4[nH]ccc4c3n2C2CCCCC2)o1	95.2227	96.9669	138.382	96.6584	115.273	92.8472	120.035	91.5278	75.2682	130.215	113.424	104.709
COc1ccccc1-c1cc(Nc2cccc(CS(N)(=O)=O)c2)ncn1	105.6	95.8866	67.576	79.9168	107.839	92.9577	111.603	77.4194	104.861	97.4583	84.7968	76.3761
C[C@@H](c1cccc(CN)c1)n1cc(Cl)cc(C(N)=O)c1=N.Cl	104.535	114.984	142.418	104.758	79.0577	134.768	97.3624	96.7861	85.1583	93.567	85.5992	85.7646
CCCOc1ccn2c(C(C)=O)cc(-c3cccc(OC)c3)c2c1	110.241	146.669	131.845	119.651	84.3946	120.115	124.987	98.1469	76.4747	110.044	113.084	103.998
COCCc1ccc(-c2c(C)nc3c(N4CCOCC4)ccnn23)cn1 [JNJ-42396302]	95.3565	88.7666	124.422	103.43	101.077	99.3561	103.596	90.5469	126.017	102.271	117.378	103.223
Cc1c(Nc2ccc(S(=O)(=O)N3CCN(C)CC3)cc2F)nc2ccc(-c3cnn(C4CC4)c3)cn2c1=O	106.525	138.146	47.9872	100.536	89.9801	85.4908	97.5645	92.3914	100.034	149.535	70.24	85.351
Nc1ccc(C(=O)Nc2cccc(-c3nc(N4CCOCC4)c4oc5ncccc5c4n3)c2)cn1	78.745	81.5262	28.4733	93.3288	67.7704	105.191	42.3601	61.5192	142.389	75.1771	60.1963	81.7819
C[C@@]1(Cc2ccc(C#N)cc2)C(=O)N(c2cc(Cl)cc(Cl)c2)c2ncc(C(=O)NC3(c4nc(C5CCC5)no4)CC3)n21 [BI 9446]	85.7019	100.079	74.4511	102.688	88.6006	103.948	113.423	106.796	72.3076	136.535	95.8483	102.524
COCC(=O)NC/C=C/c1ccc2ncnc(Nc3ccc(Oc4ccc(C)nc4)c(C)c3)c2c1 [CP-724714]	64.178	58.1065	46.8341	91.801	60.8642	107.55	48.0446	87.9569	97.3561	94.0282	76.6577	85.6537
CC[C@@H]1CN(C(=O)NCC(F)(F)F)C[C@@H]1c1cnc2cnc3[nH]ccc3n12 [UPADACITINIB]	104.182	86.3482	126.811	90.1732	168.996	89.117	123.387	83.332	123.754	83.5298	89.3672	88.6624
Cn1cc(Cl)c2c(Oc3c(F)cc(Nc4cc(Cl)nc(N)n4)cc3F)ccnc21 [BAY-4900]	121.536	149.241	59.0633	101.592	109.877	85.9396	108.551	92.3665	91.184	109.2	84.5951	91.9324
Cc1c(N2CCCC2)nc2ccc(Br)cc2c1C(=O)NC[C@H](CCC(=O)O)c1ccccc1Cl [BAY-6672]	132.373	142.298	78.4477	99.1733	130.472	109.165	108.929	91.644	83.0644	119.315	90.6805	98.6918
